In US20250352615A1, “COMPOSITIONS AND METHODS FOR THE MODULATION OF PIEZO1 AND TRPV4” (Duke University, priority 2021, published 2025):

Assays:
[1] = target: T1, Piezo1 (Mus musculus, UniProt E2JF22); experiment: Calcium imaging of Yoda1 (Piezo1)-mediated [Ca2+]i in pancreatic acini; format: cell-based; settings: pancreatic acini, bath calcium 2 mM, Yoda1 25 μM
T1 construct: endogenous in cells; host or cells: freshly isolated mouse pancreatic acini (WT = Piezo1 fl/fl on a C57BL/6J background)
Procedure: (§1) Mouse pancreatic acini were isolated using a standard collagenase digestion protocol. Isolated acini were plated on a thin-layered, Matrigel-coated, glass-bottom, culture plate (MatTek, P35G-0-14-C). Freshly isolated acini were used in each experiment.
(§2) Calcium imaging in pancreatic acini was performed as previously described. The chemicals used in calcium imaging experiments included the following: Yoda1 (Tocris; 5586), GsMTx4 (Abcam; ab141871), 5′,6′-EET (Santa Cruz Biotechnology; sc-221066), AA (Millipore Sigma; A3611), HC067047 (Tocris; 4100), GSK1016790A (Millipore Sigma; G0798), RN1734 (Tocris; 3746), AACOCF3 (Tocris; 1462), YM26734 (Tocris; 2522), GF109203X (Tocris; 0741), and CCK8 (Sigma-Aldrich).

[2] = system: PLA2; experiment: PLA2 activity in living pancreatic acini (Bis-BODIPY FL C11-PC); format: cell-based, mouse; settings: Yoda1 25 μM
Procedure: The fluorogenic PLA2 substrate (Bis-BODIPY FL C11-PC) (Thermo Fisher Scientific; B7701) was used to monitor PLA2 activity in living cells. The pancreatic acini were incubated with Bis-BODIPY FL C11-PC in HBSS buffer with 2 mM Ca^2+ for 30 minutes. HBSS buffer with 2 mM Ca^2+ was used during imaging. A Zeiss Axio observer Z1 with a high-sensitivity EMCCD camera with a ×40/0.75 EC-Plan-NeoFluar DIC objective was used to capture the Z-stack images with stack thickness of 4 μm at an interval of 10 seconds with 480 nm excitation and 525 nm emission filter. The captured images were analyzed with MetaMorph software (Molecular Devices).

[3] = system: Yes-associated protein (YAP); experiment: YAP nuclear localization in mouse stellate cells (immunostaining); format: cell-based; settings: Yoda1 25 μM for 4 hr
Procedure: Murine stellate cells from wild type or Piezo1^GFAPKO mice were activated with 25 μM Yoda 1 for 4 hours before fixation. Immunostaining staining was performed as described in Swain et al. JCI Insight 7:e158288 (2022). Yap antibody was diluted at 1/100.

[4] = system: pancreatic acini; experiment: Mitochondrial depolarization in pancreatic acini (TMRE); format: cell-based, mouse; settings: Yoda1 50 μM
Procedure: Live-cell mitochondrial depolarization was analyzed using the mitochondrial labeling dye, TMRE. Isolated acini were plated on a thin-layered, Matrigel-coated, glass-bottom culture plate with DMEM/F12 and 10% FBS media and placed in a CO2 incubator for 1 hr at 37° C. After 1 hr, the acini were incubated with TMRE (200 nM) in the bath buffer containing 140 mM NaCl, 4.7 mM KCl, 2.0 CaCl2, 1 mM MgCl2, 10 mM HEPES, and 10 mM glucose (pH adjusted to 7.4 with NaOH) for 30 minutes. The TMRE dye was washed and replaced with fresh bath buffer. The images were captured with a Zeiss Axio observer Z1 microscope with MetaMorph software (Molecular Devices) at intervals of 600 ms. TMRE was excited at 540-600 nm and emission collected at 585-675 nm. Carbonyl cyanide 4-(trifluoromethoxy) phenylhydrazone (FCCP), which uncouples the oxidative phosphorylation process and depolarizes mitochondria, was used as a positive control. A maximum of 2 mitochondrial puncta were taken per acinar cell.

[5] = target: T2, TRPV4 (Mus musculus, UniProt Q9EPK8); experiment: Calcium imaging of TRPV4-mediated [Ca2+]i in pancreatic acini (agonists, shear stress, Yoda1 sustained phase); format: cell-based; settings: Yoda1
T2 construct: endogenous in cells; host or cells: freshly isolated mouse pancreatic acini (C57BL/6J WT)
T2 sequence (Q9EPK8 whole entry): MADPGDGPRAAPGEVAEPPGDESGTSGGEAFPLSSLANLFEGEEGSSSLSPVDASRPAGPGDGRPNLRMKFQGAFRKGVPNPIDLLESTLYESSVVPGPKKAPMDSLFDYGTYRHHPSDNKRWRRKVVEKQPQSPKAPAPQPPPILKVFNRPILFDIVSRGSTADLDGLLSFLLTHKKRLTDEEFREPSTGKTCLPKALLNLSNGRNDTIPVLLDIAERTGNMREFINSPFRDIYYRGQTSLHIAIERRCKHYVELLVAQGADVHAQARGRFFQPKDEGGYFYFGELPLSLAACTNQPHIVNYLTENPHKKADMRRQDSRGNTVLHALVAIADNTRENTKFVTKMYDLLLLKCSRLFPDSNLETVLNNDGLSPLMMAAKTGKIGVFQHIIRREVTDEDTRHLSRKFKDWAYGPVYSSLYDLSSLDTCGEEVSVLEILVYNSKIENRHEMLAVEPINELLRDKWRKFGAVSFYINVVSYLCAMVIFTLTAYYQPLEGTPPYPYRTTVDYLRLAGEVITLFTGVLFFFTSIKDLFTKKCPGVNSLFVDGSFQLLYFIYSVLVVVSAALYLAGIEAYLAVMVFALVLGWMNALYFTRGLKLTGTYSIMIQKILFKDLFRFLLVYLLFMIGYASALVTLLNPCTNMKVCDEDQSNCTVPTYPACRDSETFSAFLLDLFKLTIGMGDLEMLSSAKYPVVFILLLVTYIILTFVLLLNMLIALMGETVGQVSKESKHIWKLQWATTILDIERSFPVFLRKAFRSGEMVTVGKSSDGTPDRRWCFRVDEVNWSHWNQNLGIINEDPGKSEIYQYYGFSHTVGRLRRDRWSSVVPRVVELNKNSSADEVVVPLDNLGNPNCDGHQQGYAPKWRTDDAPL
Procedure: as §1
Parallel-plate fluid flow chambers (μ-Slide I 0.4 Luer, and μ-Slide I 0.2 Luer from Ibidi GmbH) were used to measure the shear stress-induced changes in intracellular calcium, mitochondrial depolarization, and trypsin activation. The constant flow rate with shear stress (T) was determined as follows: τ=η×[…] φ for μ-Slide I 0.4 Luer and τ=η×330.4 φ for μ-Slide I 0.2 Luer, where η=viscosity of the medium and φ=flow rate (according to the manufacturer's instructions, Ibidi).
as §2

T1 sequence (E2JF22 whole entry): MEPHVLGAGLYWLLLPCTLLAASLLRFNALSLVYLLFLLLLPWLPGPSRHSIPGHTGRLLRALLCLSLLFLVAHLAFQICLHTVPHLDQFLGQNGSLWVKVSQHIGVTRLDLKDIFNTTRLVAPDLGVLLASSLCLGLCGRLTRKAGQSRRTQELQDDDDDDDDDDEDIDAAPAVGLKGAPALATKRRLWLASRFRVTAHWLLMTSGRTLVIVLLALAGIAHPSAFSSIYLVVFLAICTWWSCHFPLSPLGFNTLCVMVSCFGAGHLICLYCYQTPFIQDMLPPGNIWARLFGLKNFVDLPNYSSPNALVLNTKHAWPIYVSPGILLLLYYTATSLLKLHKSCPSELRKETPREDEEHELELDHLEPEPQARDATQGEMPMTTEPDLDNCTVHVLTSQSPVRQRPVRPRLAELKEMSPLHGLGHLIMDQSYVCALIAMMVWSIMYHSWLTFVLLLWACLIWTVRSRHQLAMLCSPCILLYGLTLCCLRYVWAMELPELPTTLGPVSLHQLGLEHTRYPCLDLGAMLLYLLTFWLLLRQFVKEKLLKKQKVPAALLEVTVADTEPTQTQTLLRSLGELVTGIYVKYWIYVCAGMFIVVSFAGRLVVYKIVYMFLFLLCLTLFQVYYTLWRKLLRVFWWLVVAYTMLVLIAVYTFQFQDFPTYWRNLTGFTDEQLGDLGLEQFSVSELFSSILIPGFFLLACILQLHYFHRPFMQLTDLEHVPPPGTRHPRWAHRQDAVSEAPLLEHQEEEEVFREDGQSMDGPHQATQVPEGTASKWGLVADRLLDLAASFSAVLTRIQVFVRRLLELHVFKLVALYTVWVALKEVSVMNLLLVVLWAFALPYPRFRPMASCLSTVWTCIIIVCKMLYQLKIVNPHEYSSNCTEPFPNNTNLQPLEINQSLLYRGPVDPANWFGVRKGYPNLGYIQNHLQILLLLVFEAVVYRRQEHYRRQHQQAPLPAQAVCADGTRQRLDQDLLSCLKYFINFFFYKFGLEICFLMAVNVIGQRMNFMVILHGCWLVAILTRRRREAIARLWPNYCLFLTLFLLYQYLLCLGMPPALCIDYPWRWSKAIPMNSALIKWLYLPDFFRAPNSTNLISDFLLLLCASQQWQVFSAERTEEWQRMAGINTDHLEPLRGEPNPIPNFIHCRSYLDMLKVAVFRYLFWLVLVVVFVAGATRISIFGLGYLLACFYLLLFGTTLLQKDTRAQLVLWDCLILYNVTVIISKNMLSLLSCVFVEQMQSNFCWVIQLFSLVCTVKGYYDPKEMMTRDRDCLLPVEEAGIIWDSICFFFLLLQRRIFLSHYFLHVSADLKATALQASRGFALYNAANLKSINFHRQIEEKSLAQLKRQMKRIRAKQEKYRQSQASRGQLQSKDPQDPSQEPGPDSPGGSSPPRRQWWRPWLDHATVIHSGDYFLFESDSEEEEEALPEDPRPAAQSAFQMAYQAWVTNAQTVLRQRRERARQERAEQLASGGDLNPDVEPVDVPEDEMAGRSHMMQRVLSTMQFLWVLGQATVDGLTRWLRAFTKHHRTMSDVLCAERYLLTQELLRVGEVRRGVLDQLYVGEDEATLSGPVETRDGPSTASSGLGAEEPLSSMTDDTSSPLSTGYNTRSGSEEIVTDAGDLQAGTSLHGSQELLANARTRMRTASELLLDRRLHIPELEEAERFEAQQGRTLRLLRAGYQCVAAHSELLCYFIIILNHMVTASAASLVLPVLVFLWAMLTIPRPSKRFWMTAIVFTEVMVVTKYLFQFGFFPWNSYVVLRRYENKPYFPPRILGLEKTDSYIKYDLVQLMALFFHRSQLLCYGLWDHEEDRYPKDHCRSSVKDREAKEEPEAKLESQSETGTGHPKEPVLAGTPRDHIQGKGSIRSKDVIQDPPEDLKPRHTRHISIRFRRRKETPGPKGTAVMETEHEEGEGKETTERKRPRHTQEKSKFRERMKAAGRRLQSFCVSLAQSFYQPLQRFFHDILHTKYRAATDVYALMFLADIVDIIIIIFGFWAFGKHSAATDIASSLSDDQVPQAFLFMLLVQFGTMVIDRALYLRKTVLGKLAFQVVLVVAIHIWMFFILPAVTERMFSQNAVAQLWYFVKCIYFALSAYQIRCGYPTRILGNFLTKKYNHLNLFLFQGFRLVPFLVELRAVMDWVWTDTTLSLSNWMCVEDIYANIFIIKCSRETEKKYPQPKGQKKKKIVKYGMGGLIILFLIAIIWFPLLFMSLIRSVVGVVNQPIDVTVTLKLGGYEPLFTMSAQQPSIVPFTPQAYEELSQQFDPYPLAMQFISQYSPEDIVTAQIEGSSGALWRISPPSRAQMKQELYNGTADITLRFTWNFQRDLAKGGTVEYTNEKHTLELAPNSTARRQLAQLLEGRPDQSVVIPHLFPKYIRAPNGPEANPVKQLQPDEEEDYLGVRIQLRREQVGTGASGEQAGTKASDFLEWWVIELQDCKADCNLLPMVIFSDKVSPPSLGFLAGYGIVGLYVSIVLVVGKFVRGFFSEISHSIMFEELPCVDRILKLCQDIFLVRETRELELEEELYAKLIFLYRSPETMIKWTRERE

Clc1cccc(Cl)c1CSc1nnc(-c2cnccn2)s1 [Yoda1]
[Ca2+]i response to Yoda1 [1]: initial transient Ca^2+ rise, followed by sustained intracellular calcium elevation
PLA2 activation in acini from Piezo1aci-KO mice [2]: did not stimulate PLA2 activation
onset of PLA2 activation after application [2]: ≤ 30 s
time to plateau of PLA2 activity [2]: 4 min
intensity of fluorogenic PLA2 substrate (PLA2 activity) ([2]; WT acini): markedly increased the intensity of the fluorogenic PLA2 substrate
YAP nuclear localization in stellate cells from Piezo1GFAP-KO mice [3]: No changes were observed
YAP nuclear localization ([3]; wild-type stellate cells, preliminary): increases YAP nuclear localization
mitochondrial depolarization in Piezo1aci-KO cells [4]: did not depolarize mitochondria
rate of mitochondrial depolarization compared with CCK (10 nM) [4]: occurred at a higher rate than that induced with CCK
TMRE fluorescence intensity (mitochondrial depolarization) ([4]; WT acini): significantly decreased TMRE fluorescence intensity
time to mitochondrial depolarization after application ([4]; CCK 10 nM): ≤ 3 min
[Ca2+]i response in acini from TRPV4-KO mice [5]: only transient elevation in [Ca^2+]i
